No end group written: not given here.
T1: citrate synthase (CS) (Sus scrofa, UniProt P00889)
T1 construct: purchased Sigma-Aldrich Chemical Co. (St. Louis, Mo.)
T1 sequence (P00889 28-464): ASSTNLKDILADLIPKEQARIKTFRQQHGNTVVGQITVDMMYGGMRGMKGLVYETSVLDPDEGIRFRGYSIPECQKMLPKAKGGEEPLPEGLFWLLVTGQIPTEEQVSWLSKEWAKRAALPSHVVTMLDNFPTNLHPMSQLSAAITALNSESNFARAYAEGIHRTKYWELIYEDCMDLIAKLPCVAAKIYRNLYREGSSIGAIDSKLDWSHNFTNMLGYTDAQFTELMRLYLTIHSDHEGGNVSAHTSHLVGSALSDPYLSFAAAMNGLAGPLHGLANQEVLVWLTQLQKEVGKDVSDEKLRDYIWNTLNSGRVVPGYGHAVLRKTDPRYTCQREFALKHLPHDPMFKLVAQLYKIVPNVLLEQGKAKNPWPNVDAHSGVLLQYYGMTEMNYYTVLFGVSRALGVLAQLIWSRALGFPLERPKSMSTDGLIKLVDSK


Experiments:
citrate synthase (CS) = target: T1, citrate synthase (CS); assay: Chaperone assay, client protein citrate synthase; type: biochemical
Procedure: (§1) Chaperone assays were performed as previously described. The ratios of the peptides: client proteins (w/w) were as follows: citrate synthase, 1:2.5; insulin, 1:10; βL-crystallin, 1:1.5; and γ-crystallin, 1:1. The scrambled αA-crystallin peptide was tested in certain assays at peptide: client protein ratios as follows: citrate synthase, 1:1.25, insulin, 1:5 to determine peptide specificity.

insulin (IN) = assay: Chaperone assay, client protein insulin; type: biochemical
Procedure: as §1

βL-crystallin (BLC) = assay: Chaperone assay, client protein βL-crystallin; type: biochemical; conditions: peptide:βL-crystallin 1:1.5 (w/w)
Procedure: as §1

γ-crystallin (GC) = assay: Chaperone assay, client protein γ-crystallin; type: biochemical; conditions: peptide:γ-crystallin 1:1 (w/w)
Procedure: as §1

CHO cells = assay: Hyperthermia-induced apoptosis in CHO cells (Hoechst stain); type: cell-based, Chinese hamster; conditions: for inhibition of apoptosis: untreated rate ~28%
Procedure: (§2) Human lens epithelial cells (HLE) were isolated from the lens of a donor and cultured in DMEM supplemented with 10% FBS as previously described for mouse lens epithelial cells. Cells between passages 5 and 6 were used for the experiments. Chinese hamster ovary (CHO) cells were cultured in Ham's F12 medium. The α-crystallin peptides were mixed with a cationic lipid, BIOPORTER (BP), according to the manufacturer's instructions (Polyplus transfection reagent, Illkirch, France). When the cultures reached 70-80% confluence, the cells were treated with BP either alone or with the peptides in serumfree medium and incubated for 4 h at 37° C. in a humidified 5% CO2 atmosphere. The cells were then washed with PBS and incubated at 43° C. for 1 h (thermal stress), followed by incubation at 37° C. for 16 h for recovery. The percentage of apoptotic cells was determined by staining the cells with Hoechst. Cells incubated at 37° C. without thermal stress were used as controls.

[1] = system: Human lens epithelial cells (HLE); assay: Hyperthermia-induced apoptosis in HLE cells (Hoechst stain); type: cell-based; conditions: 43° C. 1 h; for rate of apoptosis after peptide pretreatment: 4 μg/ml in BP 4 h, without peptide nearly 40%
Procedure: as §2

caspase-3 = assay: Caspase-3 activity in thermally stressed CHO cells; type: cell-based, Chinese hamster; conditions: 4 μg/ml
Procedure: (§3) Cells were lysed in cell lysis buffer (Cell signaling), and lenses were homogenized in 50 mM Tris-buffered saline. Both buffers contained a protease inhibitor cocktail (1:100 dilution). An equal volume of a fluorogenic substrate solution[2× reaction buffer: 10 mM DTT and 50 μM Ac-DEVD-AFC (for caspase-3) or Ac-LEHDAFC (for caspase-9)] was added to each lysate. The lysates were then incubated for 2 h at 37° C. in the dark. The samples were analyzed with a […] spectrofluorometer (HORIBA Scientific, Edison, N.J.) at excitation/emission wavelengths 400/505 nm.

caspase-9 = assay: Caspase-9 activity in thermally stressed CHO cells; type: cell-based, Chinese hamster; conditions: 4 μg/ml
Procedure: as §3

[2] = system: selenite-induced cataracts; assay: Selenite-induced cataract in rat pups (slit lamp); type: in vivo
Procedure: (§4) Neonatal Sprague-Dawley rat pups (12 days old) were used for these experiments. The pups in the experimental groups received a single subcutaneous injection of sodium selenite (4 mg/Kg body weight) on day 12. Peptides diluted from a stock in sterile water (dissolved by adding 2 μl of 10 N NaOH to a 1.0 ml stock) were injected intraperitoneally (at 2.5, 5, or 10 μg/animal) 6 h prior to selenite injection (single injection). When multiple injections were performed, one pre-selenite injection was administered, as above, followed by four additional injections on four consecutive days after the sodium selenite injection. One group served as the control (no treatment) and another as the selenite control (no peptide injection). The lenses were examined on day 17 (when the pups had opened their eyes) using a slit lamp microscope (after dilating the pupil through topical application of tropicamide) and photographed. For hematoxylin and eosin (H & E) and TUNEL staining, eyes were fixed immediately after enucleation in a 10% buffered formalin solution overnight.

lens protein aggregation = assay: Histology (H&E) of lens protein aggregation in selenite cataract; type: in vivo, rat; conditions: multiple injections 10 μg
Procedure: as §4

lens epithelial cells [3] = assay: Lens epithelial cell apoptosis in selenite cataract (in situ TUNEL); type: in vivo, rat; conditions: multiple 10 μg injections
Procedure: as §4

lens epithelial cells [4] = assay: Calcimycin-induced apoptosis in organ-cultured mouse lenses (TUNEL); type: cell-based; conditions: 5 μM calcimycin
Procedure: The animal experiments conformed to the ARVO Statement for the Use of Animals in Ophthalmic and Vision Research and were approved by the CWRU's Animal Care and Use Committee. Lenses were dissected from the eyes of ˜3-month-old C57B1/6 mice and maintained in artificial aqueous humor (AAH) (113 mM NaCl, 4.5 mM KCl, 1 mM MgCl2, 1.5 mM CaCl2, 6 mM D-glucose, 10 mM HEPES, 20 mM NaHCO3, and 1:1,000 penicillin/streptomycin, pH 7.3). Lenses that developed opacification within 24 h were discarded. Native and acetyl αA- and αB crystallin peptides were added to the culture medium at a concentration of 50 μg/3.0 ml, followed by incubation of the lenses for 16 h. The medium was replaced with fresh medium containing 5 μM calcimycin, and the lenses were incubated for an additional 6 h. After this incubation period, the lenses were thoroughly washed with PBS, fixed in 1% buffered formalin overnight, and embedded in paraffin. Microtome sections (5 μm) were subsequently rehydrated and subjected to antigen retrieval via microwave irradiation in 10 mM citrate buffer (pH 6.0). Apoptosis was measured using the In situ Cell Death Detection Kit (Roche, Indianapolis, Ind.) according to the manufacturer's instructions. The sections were counterstained with DAPI to visualize nuclei.

[5] = target: the above four client proteins (citrate synthase, insulin, βL-crystallin, γ-crystallin); assay: cell-based or functional assay
[6] = multiple i.p. injections 5 μg/animal
[7] = multiple i.p. injections 10 μg/animal
[8] = single i.p. injection 2.5 μg/animal 6 h prior to selenite
[9] = single i.p. injection 10 μg/animal 6 h prior to selenite
[10] = 1 μg/ml peptide in BIOPORTER 4 h, 43° C. 1 h
[11] = 2 μg/ml peptide in BIOPORTER 4 h, 43° C. 1 h
[12] = 4 μg/ml peptide in BIOPORTER 4 h, 43° C. 1 h

| Molecule | rate of apoptosis after peptide pretreatment [1] | inhibition of caspase-3 activity (caspase-3) | inhibition of caspase-9 activity (caspase-9) | inhibition of cataract development [2, 6] | inhibition of cataract development [2, 7] | inhibition of cataract development [2, 8] | inhibition of cataract development [2, 9] | inhibition of protein aggregation in the lens center (H&E) (lens protein aggregation) | inhibition of lens epithelial cell apoptosis (TUNEL) (lens epithelial cells [3]) | inhibition of apoptosis (CHO cells; [10]) | inhibition of apoptosis (CHO cells; [11]) | inhibition of apoptosis (CHO cells; [12]) | further results |
| --- | --- | --- | --- | --- | --- | --- | --- | --- | --- | --- | --- | --- | --- |
| 69DK (acetyl) FVIFLDVKHFSPEDLTVK88 (DK(Ac)FVIFLDVKHFSPEDLTVK; listed as Homo sapiens) [αA-acetyl peptide] | 25% | 90% | 53% | strongly inhibited cataracts | entirely inhibited cataracts | ineffective | more effective than the native peptide | inhibited | inhibited apoptosis | – | – | – | chaperone function compared with the native peptide (citrate synthase (CS); peptide:citrate synthase 1:2.5 (w/w)): significantly better; chaperone function compared with the native peptide (insulin (IN); peptide:insulin 1:10 (w/w)): significantly better; chaperone function compared with the native peptide (βL-crystallin (BLC)): not different; chaperone function compared with the native peptide (γ-crystallin (GC)): significantly better; more effective than the native peptide in inhibiting apoptosis (CHO cells; at the 2 and 4 μg concentrations): at least 5%; inhibition of cataract development ([2]; multiple i.p. injections 2.5 μg/animal): partially inhibited cataract development; inhibition of cataract development ([2]; single i.p. injection 5 μg/animal 6 h prior to selenite): more effective than the native peptide |
| 69DKFVIFLDVKHFSPEDLTVK88 (listed as Homo sapiens) [αA-native peptide] | 22% | 80% | 51% | strongly inhibited cataracts | entirely inhibited cataracts | ineffective | – | inhibited | inhibited apoptosis | 12% | 14% | 17% | – |
| 73DRFSVNLDVKHFSPEELKVKV93 (listed as Homo sapiens) [αB-native peptide] | 18% | 80% | 51% | – | inhibited cataract development | ineffective | strongly inhibited cataract development | inhibited | inhibited apoptosis | 8% | 12% | 17% | – |
| DFVIDSPFKLVDLEKVHFTK (listed as Homo sapiens) [αA-scrambled peptide] | – | – | – | – | entirely ineffective | – | – | – | – | – | – | – | chaperone function (citrate synthase (CS); peptide:CS 1:1.25, two times higher concentration than native and acetyl peptides): did not function as a chaperone; chaperone function (insulin (IN); peptide:IN 1:5, two times higher concentration than native and acetyl peptides): did not function as a chaperone; inhibition of apoptosis (in words) (CHO cells; 4 μg/ml, 43° C. 1 h): did not inhibit apoptosis; inhibition of apoptosis (in words) ([1]; 4 μg/ml): did not inhibit apoptosis; protection from calcimycin-induced apoptosis (in words) (lens epithelial cells [4]): did not protect the cells |
| DRFSVNLDVKHFSPEELKVK(Ac)V [αB-crystallin acetyl peptide 73…(acetyl)V93] | – | – | – | – | – | – | – | – | – | – | – | – | chaperone function, against the native αB peptide (percent weaker) [5]: 10 to 30% |

— patent US20150133388A1, “ACETYLATED CRYSTALLIN POLYPEPTIDES AND MIMETICS THEREOF AS THERAPEUTIC AGENTS” (Case Western Reserve University, priority 2012, published 2015)
